Source: EP0392976A1, “Monoclonal antibodies to tetracyclic compounds, processes for their production, and applications” (CIBA-GEIGY AG, priority 1989, dated 1990)
Counter-ions that a name gives are not always drawn. Like-named read-outs stand apart in the source and are kept apart here.

Key:
Assay in all cases: inhibition enzyme immunoassay: inhibition of MAb binding to surface bound R-(-)-oxaprotiline-mucin conjugate
Parameters in all cases: species or system mouse
MAb 1228P63.1 = details: for IC50: read-out: IC₅₀
Method: (§1) The affinities of the monoclonal antibodies of the invention to R-(-)-oxaprotiline can for example be determined in an inhibition enzyme immunoassay according to Friguet et al. (J. Immunol. Methods 77, 305, 1985) wherein the monoclonal antibody to be tested is preincubated with R-(-)-oxaprotiline and, in a second step, exposed to a solid phase coated with an adsorbable conjugate of R-(-)-oxaprotiline, e.g. a protein conjugate. The fraction of the monoclonal antibody not engaged in immunocomplexes binds to the solid phase and is quantified by a secondary antibody-enzyme conjugate directed against the monoclonal antibody. The affinities are expressed as IC₅₀ (inhibition concentration) values, i.e. the concentration of free antigen causing a 50 % inhibition of antibody binding to the solid phase antigen.
(§2) This can be done, for example, in an inhibition enzyme immunoassay wherein the monoclonal antibodies of the invention are preincubated with any of the soluble compounds listed above and the incubation mixture is then tested in the enzyme immunoassay described above.
(§3) The conjugate solution (0.66 mg/ml) is diluted 1000-fold in coating buffer pH 9.8 (477 mg sodium carbonate, 897 mg sodium hydrogen carbonate, 60 mg sodium azide, 300 ml distilled water) and incubated in the wells of a microtitre plate for 2 days at 4°C. The wells are washed three times with PBS containing Tween 20 (Sigma, 0.1 %). Residual adsorption sites on the plate are saturated by incubation with 100 µl of PBS/Tween 20 for 1 h. 100 µl of a solution to be tested for the presence of antibodies to R-(-)-oxaprotiline are incubated in the wells for 1 h at room temperature. After washing three times with PBS/Tween 20, an alkaline phosphatase conjugated anti-mouse IgG antiserum (Sigma) is added in a 1000-fold dilution for 1 h at 37°C. The microtitre plate is washed five times with PBS/Tween 20, and the enzyme-conjugated bound antiserum developed with an alkaline phosphatase substrate consisting of disodium p-nitrophenylphosphate (1 mg/ml; Sigma) in diethanolamine buffer pH 9.8. The substrate gives a yellow coloration which is measured with a colorimeter (Titertek Multiskan) at a wave length of 405 nm after 60 min.
(§4) The assay is carried out as described in the following.
(§5) The capacity of free R-(-)-oxaprotiline and of a number of compounds which are structurally analogous to R-(-)-oxaprotiline to inhibit the binding of the monoclonal antibodies of the invention to the antigen is determined in an inhibition enzyme immunoassay essentially as described in example 3.2. The MAbs are preincubated with free R-(-)-oxaprotiline and with various structural analogues, respectively, instead of with the test compounds of example 3.2.

MAb 1219S59.11 = details: for IC50: read-out: IC₅₀
Method: as §1, §2, §3, §4, §5

MAb 1219S78.6 = details: for IC50: read-out: IC₅₀
Method: as §1, §2, §3, §4, §5

MAb 1225S93.2 = details: for IC50: read-out: IC₅₀
Method: as §1, §2, §3, §4, §5

MAb 1226S31.3 = test system: MAb 1226S31.3
Method: as §1, §2, §3
The capacity of a number of therapeutic drugs some of which are used in combination with antidepressants and of biogenic amines to inhibit the binding of the monoclonal antibodies of the invention to the antigen is determined in a two-step inhibition enzyme immunoassay to establish the selectivity of the monoclonal antibodies to the tested compounds.
as §4, §5

[1] = Mab 1226S31.3, therapeutic drugs and biogenic amines, 1 µM-150 pM, preincubated overnight, read-out: IC50
[2] = MAb 1228P63.1, derived from IC50, compound 1 = 1
[3] = MAb 1219S59.11, derived from IC50, compound 1 = 1
[4] = MAb 1225S93.2, derived from IC50, compound 1 = 1

Row | SMILES | rel. affinity (MAb 1228P63.1) | IC50 (MAb 1228P63.1; MAb 1228P63.1) [nM] | rel. affinity (MAb 1219S59.11) | IC50 (MAb 1219S59.11; MAb 1219S59.11) [nM] | IC50 relative to reference compound (fold) (MAb 1219S78.6) | IC50 (MAb 1219S78.6; MAb 1219S78.6) [nM] | rel. affinity (MAb 1225S93.2) | IC50 (MAb 1225S93.2; MAb 1225S93.2) [nM] | rel. affinity (MAb 1226S31.3) | IC50 (MAb 1226S31.3; MAb 1226S31.3, read-out: IC₅₀) [nM] | IC50 (MAb 1226S31.3; [1]) [nM] | rel. affinity (MAb 1228P63.1; [2]) | IC50 relative to reference compound (higher = weaker binding) (MAb 1219S59.11; [3]) | IC50 relative to reference compound (fold) (MAb 1219S78.6; MAb 1219S78.6, derived from IC50, compound 1 = 1) | rel. affinity (MAb 1225S93.2; [4]) | rel. affinity (MAb 1226S31.3; MAb 1226S31.3, derived from IC50, compound 1 = 1) | rel. affinity (MAb 1219S59.11; [3])
1 | CNCC(O)CC12CCC(c3ccccc31)c1ccccc12 (racemic) [compound 3, 1-(2-hydroxy-3-methyl-amino-propyl)-dibenzo-[b,e]bicyclo[2.2.2]-octadiene-hydro-chloride] | 2.3 | 1.72 | 2.6 | 0.75 | 1.7 | 0.515 | 1.3 | 0.475 | 0.5 | 3.09 | – | – | – | – | – | – | –
2 | CNCC(O)c1ccc(O)c(O)c1 (centres unmarked) [Epinephrin, 4-[1-hydroxy-2-(methyl-amino)-ethyl]-1,2-benzene-diol] | – | – | – | – | – | – | – | – | – | – | > 1000 | – | – | – | – | – | –
3 | NCCc1c[nH]cn1 [Histamine, 1H-imidazole-4-ethane-amine] | – | – | – | – | – | – | – | – | – | – | > 1000 | – | – | – | – | – | –
4 | NCC(O)c1ccc(O)c(O)c1 [L-Norepinephrin, 4-[2-amino-1-hydroxy-ethyl]-1,2-benzenediol] | – | – | – | – | – | – | – | – | – | – | > 1000 | – | – | – | – | – | –
5 | CNC[C@H](O)CC12CCC(c3ccccc31)c1ccccc12 [compound 1] | – | 0.75 | – | 0.29 | – | 0.305 | – | 0.37 | – | 6.7 | 6.7 | 1 | 1 | 1 | 1 | 1 | –
6 | CNC[C@@H](O)CC12CCC(c3ccccc31)c1ccccc12 [compound 2, S-(+)-1-(2-hydroxy-3-methylamino-propyl)-dibenzo[b,e]bicyclo-[2.2.2]octadiene-hydrochloride] | 6.5 | 4.9 | 462.0 | 134 | 126.2 | 38.5 | 2.3 | 0.85 | ∼0.6 | ~4 | – | – | – | – | – | – | –
7 | CNC[C@@H](CC12CCC(c3ccccc31)c1ccccc12)O[C@@H]1O[C@H](C(=O)O)[C@@H](O)[C@H](O)[C@H]1O [compound 4, R-(-)-1-(2-glucuronyl-3-methylamino-propyl)-dibenzo[b,e]bicyclo-[2.2.2]octadiene] | 68.0 | 51 | 244.8 | 71 | 229.5 | 70 | 245.9 | 91 | 4.1 | 27.5 | – | – | – | – | – | – | –
8 | CNC[C@H](CC12CCC(c3ccccc31)c1ccccc12)O[C@@H]1O[C@H](C(=O)O)[C@@H](O)[C@H](O)[C@H]1O [compound 5, S-(+)-1-(2-glucuronyl-3-methylamino-propyl)-dibenzo[b,e]bicyclo-[2.2.2]octadiene] | 562.7 | 422 | >3448 | > 1000 | >3279 | > 1000 | 429.7 | 159 | 52.7 | 353 | – | – | – | – | – | – | –
9 | CNCCCC12CCC(c3ccccc31)c1ccccc12 [compound 6, 1-(3-methylamino-propyl)-dibenzo[b,e]-bicyclo[2.2.2]-octadiene-hydro-chloride] | – | – | – | – | – | – | – | – | – | – | – | 1.4 | – | – | 1.2 | – | 8.8
10 | NCC(O)CC12CCC(c3ccccc31)c1ccccc12 (centres unmarked) [compound 7, 1-(3-amino-2-hydroxy-propyl)-dibenzo[b,e]-bicyclo[2.2.2]-octadiene-hydro-chloride] | 2.2 | 1.65 | 368.9 | 107 | 249.2 | 76 | 2.0 | 0.75 | 0.4 | 2.38 | – | – | – | – | – | – | –
11 | CNCC(CC12CCC(c3ccccc31)c1ccccc12)OC(C)=O (centres unmarked) [compound 11, 1-(2-acetoxy-3-methyl-amino-propyl)-dibenzo[b,e]bicyclo-[2.2.2]octadiene-hydrochloride-semi-hydrate] | 4.5 | 3.35 | 4.5 | 1.3 | 3.3 | 1 | 1.9 | 0.715 | 0.5 | 3.58 | – | – | – | – | – | – | –
12 | c1ccc2c(c1)C1CCC2(CC2CNCCO2)c2ccccc21 (centres unmarked) [compound 12, 2-(dibenzo[b,e]bicyclo-[2.2.2]octadienyl-1-methyl)-morpholine-hydrochloride] | 3.1 | 2.35 | 174.1 | 50.5 | ∼49.2 | ~15 | 6.4 | 2.35 | 0.3 | 2.1 | – | – | – | – | – | – | –
13 | CN1COC(CC23CCC(c4ccccc42)c2ccccc23)C1 (centres unmarked) [compound 13, 3-methyl-5-(dibenzo-[b,e]bicyclo[2.2.2]-octadienyl-1-methyl)-oxazolidine-methane-sulfonate] | 1.6 | 1.2 | 1.9 | 0.55 | 1.6 | 0.48 | 1.6 | 0.58 | 0.7 | 4.45 | – | – | – | – | – | – | –
14 | CN(C)CC(O)CC12CCC(c3ccccc31)c1ccc(Cl)cc12 (centres unmarked) [compound 15, 1-(2-hydroxy-3-dimethylamino-propyl]-10-chlorodibenzo[b,e]-bicyclo[2.2.2]-octadiene-cyclamate] | 16.7 | 12.5 | 124.1 | 36 | 170.5 | 52 | 74.3 | 27.5 | 7.5 | 50 | – | – | – | – | – | – | –
